Experimental data reported in patent US9682925B2, “Cyclopropaneamine compound” (TAKEDA PHARMACEUTICAL COMPANY LIMITED, priority 2011, dated 2017).
Where a name gives a salt, the structure may show the parent alone.

Columns and labels:
Assay type in all cases: biochemical
[1] = target: T1, human LSD1(171-852) (Homo sapiens, UniProt O60341); assay: Measurement of LSD1 inhibitory activity (time-resolved fluorescence, biotin-histone H3 mono methylated K4 peptide); conditions: read-out: LSD1 IC50 value
T1 construct: to give hLSD1(171-852) purified product; made in house; host or cells: Escherichia coli C43(DE3) pLysS

[2] = target: T2, MAO-A (Homo sapiens, UniProt P21397); assay: Measurement of MAO-A inhibitory activity (MAO-Glo Assay)
T2 construct: purchased Sigma-Aldrich Co. LLC
T2 sequence (P21397 1-527): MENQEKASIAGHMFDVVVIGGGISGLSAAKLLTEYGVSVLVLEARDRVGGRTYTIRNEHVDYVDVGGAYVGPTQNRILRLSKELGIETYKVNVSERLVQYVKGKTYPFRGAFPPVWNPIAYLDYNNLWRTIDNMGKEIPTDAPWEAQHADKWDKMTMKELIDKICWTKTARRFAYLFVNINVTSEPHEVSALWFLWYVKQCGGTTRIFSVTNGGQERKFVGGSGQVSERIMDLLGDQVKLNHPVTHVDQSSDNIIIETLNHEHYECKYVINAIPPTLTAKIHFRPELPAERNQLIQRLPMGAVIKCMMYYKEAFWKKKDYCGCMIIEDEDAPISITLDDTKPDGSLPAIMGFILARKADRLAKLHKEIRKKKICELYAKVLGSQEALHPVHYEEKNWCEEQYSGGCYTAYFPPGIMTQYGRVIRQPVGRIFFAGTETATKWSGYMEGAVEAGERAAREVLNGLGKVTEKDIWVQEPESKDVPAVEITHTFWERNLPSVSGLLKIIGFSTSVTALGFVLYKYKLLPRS
Procedure, shortened: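 MAO-A (400 ng) was pre-incubated with compound 10 min at room temperature in 100 mM HEPES pH 7.5, 5% glycerol, then MAO substrate (160 μM stock) added for 60 min. Luciferin detection reagent, 20 min, luminescence; % inhibition against no-compound control minus no-enzyme blank.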

[3] = target: T3, MAO-B (Homo sapiens, UniProt P27338); assay: Measurement of MAO-B inhibitory activity (MAO-Glo Assay)
T3 construct: purchased Sigma-Aldrich Co. LLC
T3 sequence (P27338 1-520): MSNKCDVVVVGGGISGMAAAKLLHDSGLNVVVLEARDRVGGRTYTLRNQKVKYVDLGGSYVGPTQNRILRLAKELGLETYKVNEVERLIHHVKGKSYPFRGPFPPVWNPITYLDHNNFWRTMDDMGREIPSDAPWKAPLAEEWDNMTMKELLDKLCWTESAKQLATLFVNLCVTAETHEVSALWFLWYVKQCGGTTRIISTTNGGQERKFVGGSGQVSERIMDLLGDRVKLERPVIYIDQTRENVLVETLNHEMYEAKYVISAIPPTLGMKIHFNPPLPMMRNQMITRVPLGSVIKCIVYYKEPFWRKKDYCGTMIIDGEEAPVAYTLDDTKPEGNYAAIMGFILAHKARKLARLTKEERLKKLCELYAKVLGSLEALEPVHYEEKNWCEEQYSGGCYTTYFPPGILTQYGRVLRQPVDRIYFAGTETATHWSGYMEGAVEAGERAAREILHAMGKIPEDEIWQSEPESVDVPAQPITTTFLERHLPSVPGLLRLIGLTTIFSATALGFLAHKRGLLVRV
Procedure, shortened: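 Percent inhibition was calculated from luciferin-based luminescence, corrected with a blank lacking enzyme and a control lacking compound. The reaction ran 60 min at room temperature after adding MAO substrate (16 µM as added). This followed a 10 min compound–enzyme preincubation in HEPES pH 7.5 buffer.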

| IC50 [1] [nM] | IC50 [2] [µM] | IC50 [3] [µM] | SMILES |
| --- | --- | --- | --- |
| < 100 | > 10 | > 10 | O=C(Nc1ccc([C@@H]2C[C@H]2NCC2CC2)cc1)c1ccc(-c2ccccc2Cl)cc1 (relative stereo) [Example 78, 2′-chloro-N-(4-{trans-2-[(cyclopropylmethyl)amino]cyclopropyl}phenyl)biphenyl-4-carboxamide hydrochloride] |
| < 100 | > 10 | > 10 | O=C(Nc1ccc([C@@H]2C[C@H]2NCC2CC2)cc1)c1coc(-c2ccccc2)n1 (relative stereo) [Example 103, N-(4-{trans-2-[(cyclopropylmethyl)-amino]cyclopropyl}-phenyl)-2-phenyl-1,3-oxazole-4-carboxamide] |
| < 100 | 8.2 | > 10 | O=C(Nc1ccc([C@@H]2C[C@H]2NCC2CC2)cc1)c1cc2ccccc2o1 (relative stereo) [Example 129, N-(4-{trans-2-[(cyclopropyl-methyl)amino]cyclo-propyl}phenyl)-1-benzofuran-2-carboxamide] |
| < 100 | > 10 | > 10 | O=C(Nc1ccc([C@@H]2C[C@H]2NCC2CC2)cc1)c1ccc(-n2cccn2)cc1 (relative stereo) [Example 94, N-(4-{trans-2-[(cyclopropylmethyl)-amino]cyclopropyl}-phenyl)-4-(1H-pyrazol-1-yl)benzamide] |
| < 100 | > 10 | > 10 | O=C(Nc1ccc([C@@H]2C[C@H]2NC2CCCCCCC2)cc1)c1ccccc1 (relative stereo) [Example 24, N-{4-[trans-2-(cyclooctyl-amino)cyclo-propyl]phenyl}-benzamide] |
| < 100 | > 10 | > 10 | Cn1cc(C(=O)Nc2ccc([C@@H]3C[C@H]3NCC3CC3)cc2)c(C(F)(F)F)n1 (relative stereo) [Example 158, N-(4-{trans-2-[(cyclopropylmethyl)amino]cyclopropyl}phenyl)-1-methyl-3-(trifluoromethyl)-1H-pyrazole-4-carboxamide hydrochloride] |
| 1000 | > 10 | > 10 | CC1=NN(c2ccc(C(=O)Nc3ccc([C@@H]4C[C@H]4NCC4CC4)cc3)cc2)C(=O)C1 (relative stereo) [Example 86, N-(4-{trans-2-[(cyclopropylmethyl)amino]cyclopropyl}-phenyl)-4-(3-methyl-5-oxo-4,5-dihydro-1H-pyrazol-1-yl)benzamide] |

Further lines, the compound ahead of its results:

| SMILES | IC50 [1] [nM] | IC50 [2] [µM] | IC50 [3] [µM] |
| --- | --- | --- | --- |
| O=C(Nc1ccc([C@@H]2C[C@H]2NCC2CC2)cc1)c1cccc(-n2ccnc2)c1 (relative stereo) [Example 148, N-(4-{trans-2-[(cyclopropylmethyl)amino]cyclopropyl}phenyl)-3-(1H-imidazol-1-yl)benzamide hydrochloride] | < 100 | 8.3 | > 10 |
| Cc1cc(NC(=O)c2ccccc2)ccc1[C@@H]1C[C@H]1NCC1CC1 (relative stereo) [Example 82, N-(4-{trans-2-[(cyclopropylmethyl)amino]cyclopropyl}-3-methylphenyl)benzamide hydrochloride] | < 100 | > 10 | > 10 |
| CN(C)c1ccccc1CN[C@@H]1C[C@H]1c1ccc(NC(=O)c2cccc(C(F)(F)F)c2)cc1 (relative stereo) [Example 142, N-{4-[trans-2-{[2-(dimethylamino)benzyl]amino}cyclopropyl]phenyl}-3-(trifluoromethyl)benzamide hydrochloride] | 100 | > 10 | > 10 |
| CC(C)(C)n1cc(C(=O)Nc2ccc([C@@H]3C[C@H]3NCC3CC3)cc2)cn1 (relative stereo) [Example 164, 1-tert-butyl-N-(4-{trans-2-[(cyclopropylmethyl)amino]cyclopropyl}phenyl)-1H-pyrazole-4-carboxamide hydrochloride] | 200 | > 10 | > 10 |
| CN(C)c1ccc(CN[C@@H]2C[C@H]2c2ccc(NC(=O)c3cccc(C(F)(F)F)c3)cc2)cc1 (relative stereo) [Example 110, N-[4-(trans-2-{[4-(dimethylamino)benzyl]amino)cyclopropyl}phenyl]-3-(trifluoromethyl)benzamide dihydrochloride] | < 100 | > 10 | > 10 |
| O=C(Nc1ccc([C@@H]2C[C@H]2NCC2CC2)cc1)c1cccc(-c2ncccn2)c1 (relative stereo) [Example 139, N-(4-{trans-2-[(cyclopropylmethyl)amino]cyclopropyl}phenyl)-3-(pyrimidin-2-yl)benzamide hydrochloride] | < 100 | 8.2 | > 10 |
| CC(N[C@@H]1C[C@H]1c1ccc(NC(=O)c2ccc(-c3ccccc3)cc2)cc1)c1ccccc1 (relative stereo) [Example 47, N-(4-{trans-2-[(1-phenylethyl)amino]-cyclopropyl}phenyl)-biphenyl-4-carboxamide] | 190 | 1.8 | 1.7 |
| O=C(Nc1ccc([C@@H]2C[C@H]2NCC2CC2)cc1)c1cccc(OC(F)(F)F)c1 (relative stereo) [Example 109, N-(4-{trans-2-[(cyclopropylmethyl)amino]cyclopropyl}phenyl)-3-(trifluoromethoxy)benzamide hydrochloride] | < 100 | > 10 | > 10 |
| CCC(CC)N[C@@H]1C[C@H]1c1ccc(NC(=O)c2ccc(-c3ccccc3)cc2)cc1 (relative stereo) [Example 49, N-(4-{trans-2-[(1-ethylpropyl)amino]-cyclopropyl}phenyl)-biphenyl-4-carboxamide] | < 100 | > 10 | > 10 |
| O=C(Nc1ccc([C@@H]2C[C@H]2NC2CCNC(c3ccccc3)C2)cc1)c1cccc(C(F)(F)F)c1 (relative stereo) [Example 77, N-(4-{trans-2-[(2-phenylpiperidin-4-yl)amino]cyclopropyl}phenyl)-3-(trifluoromethyl)benzamide dihydrochloride] | < 100 | 9.9 | > 10 |
| O=C(Nc1ccc([C@@H]2C[C@H]2NCc2ccc3ccccc3c2)cc1)c1ccccc1 (relative stereo) [Example 18, N-(4-{trans-2-[(naphthalen-2-ylmethyl)amino]-cyclopropyl}-phenyl)benzamide] | < 100 | 2.6 | > 10 |
| CC(=O)N1CCC(N[C@@H]2C[C@H]2c2ccc(NC(=O)c3ccc(-c4ccccc4)cc3)cc2)CC1 (relative stereo) [Example 62, N-(4-{trans-2-[(1-acetylpiperidin-4-yl)amino]cyclopropyl}phenyl)biphenyl-4-carboxamide hydrochloride] | < 100 | > 10 | > 10 |
| O=C(Nc1ccc([C@@H]2C[C@H]2NC2CCCCCC2)cc1)c1ccccc1 (relative stereo) [Example 23, N-{4-[trans-2-(cycloheptyl-amino)cyclo-propyl]phenyl}-benzamide] | < 100 | > 10 | > 10 |
| O=C(Nc1cccc(C(=O)Nc2ccc([C@@H]3C[C@H]3NCc3ccccc3)cc2)c1)c1ccccc1 (relative stereo) [Example 31, N-{4-[trans-2-(benzylamino)cyclopropyl]phenyl}-3-[(phenylcarbonyl)amino]benzamide] | < 100 | > 10 | > 10 |
| O=C(Nc1ccc([C@@H]2C[C@H]2NCC2CC2)cc1)c1cccc(C(F)(F)F)c1 (relative stereo) [Example 65, N-(4-{trans-2-[(cyclopropylmethyl)amino]cyclopropyl}phenyl)-3-(trifluoromethyl)benzamide hydrochloride] | < 100 | 8.6 | 9.6 |
